Here are results for two molecules from patent US6448405B1, “Steroid receptor modulator compounds and methods” (Ligand Pharmaceuticals Incorporated, priority 1994, dated 2002).

For one test, the target named is T1, human PR-B (Homo sapiens, UniProt P06401).
T1 construct: expressed in transfected cells; host or cells: CV-1 cells (African green monkey kidney fibroblasts), transient transfection
T1 sequence (P06401 1-933): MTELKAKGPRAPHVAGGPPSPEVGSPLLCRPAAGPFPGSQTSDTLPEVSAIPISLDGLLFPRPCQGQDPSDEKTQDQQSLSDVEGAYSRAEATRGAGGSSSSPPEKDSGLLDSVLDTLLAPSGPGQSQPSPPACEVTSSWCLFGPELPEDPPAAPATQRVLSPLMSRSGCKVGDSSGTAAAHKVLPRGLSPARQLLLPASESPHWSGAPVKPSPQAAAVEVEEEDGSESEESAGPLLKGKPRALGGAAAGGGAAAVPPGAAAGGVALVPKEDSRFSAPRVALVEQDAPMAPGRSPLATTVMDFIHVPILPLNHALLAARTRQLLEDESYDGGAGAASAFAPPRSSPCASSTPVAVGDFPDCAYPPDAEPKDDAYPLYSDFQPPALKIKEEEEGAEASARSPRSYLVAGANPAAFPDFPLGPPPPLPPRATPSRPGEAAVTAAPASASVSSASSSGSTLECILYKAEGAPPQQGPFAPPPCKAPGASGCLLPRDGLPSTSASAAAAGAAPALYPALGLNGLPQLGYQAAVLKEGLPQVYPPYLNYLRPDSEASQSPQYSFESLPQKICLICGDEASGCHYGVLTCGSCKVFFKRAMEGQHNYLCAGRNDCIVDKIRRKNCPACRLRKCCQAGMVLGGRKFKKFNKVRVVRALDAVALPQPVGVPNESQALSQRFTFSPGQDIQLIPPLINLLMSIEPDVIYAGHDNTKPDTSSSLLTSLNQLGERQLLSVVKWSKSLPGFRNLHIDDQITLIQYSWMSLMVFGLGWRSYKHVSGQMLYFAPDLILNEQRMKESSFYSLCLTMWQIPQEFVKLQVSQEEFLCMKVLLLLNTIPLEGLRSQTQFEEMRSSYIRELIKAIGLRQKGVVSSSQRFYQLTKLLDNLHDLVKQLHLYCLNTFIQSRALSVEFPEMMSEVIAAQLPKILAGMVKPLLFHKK
As to the kind of experiment: Co-transfection assay, PR agonist and antagonist activity, CV-1 cells.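 On all read-outs here: luciferase reporter driven by a hormone response element, co-transfected with human PR-B into CV-1 monkey kidney cells, agonists raise and antagonists lower the reporter signal.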 The settings on record: for EC50: read-out: PR Agonist CV-1 Cells Potency; for PR Antagonist CV-1 Cells Efficacy (%): antagonist mode, progesterone at its EC50, % maximal inhibition; for IC50: read-out: PR Antagonist CV-1 Cells Potency. In kind it is cell-based.

For test [1], the target named is T2, human glucocorticoid receptor (GR) (Homo sapiens, UniProt P04150).
T2 construct: expressed in transfected cells; host or cells: CV-1 cells, transient transfection
T2 sequence (P04150 1-777): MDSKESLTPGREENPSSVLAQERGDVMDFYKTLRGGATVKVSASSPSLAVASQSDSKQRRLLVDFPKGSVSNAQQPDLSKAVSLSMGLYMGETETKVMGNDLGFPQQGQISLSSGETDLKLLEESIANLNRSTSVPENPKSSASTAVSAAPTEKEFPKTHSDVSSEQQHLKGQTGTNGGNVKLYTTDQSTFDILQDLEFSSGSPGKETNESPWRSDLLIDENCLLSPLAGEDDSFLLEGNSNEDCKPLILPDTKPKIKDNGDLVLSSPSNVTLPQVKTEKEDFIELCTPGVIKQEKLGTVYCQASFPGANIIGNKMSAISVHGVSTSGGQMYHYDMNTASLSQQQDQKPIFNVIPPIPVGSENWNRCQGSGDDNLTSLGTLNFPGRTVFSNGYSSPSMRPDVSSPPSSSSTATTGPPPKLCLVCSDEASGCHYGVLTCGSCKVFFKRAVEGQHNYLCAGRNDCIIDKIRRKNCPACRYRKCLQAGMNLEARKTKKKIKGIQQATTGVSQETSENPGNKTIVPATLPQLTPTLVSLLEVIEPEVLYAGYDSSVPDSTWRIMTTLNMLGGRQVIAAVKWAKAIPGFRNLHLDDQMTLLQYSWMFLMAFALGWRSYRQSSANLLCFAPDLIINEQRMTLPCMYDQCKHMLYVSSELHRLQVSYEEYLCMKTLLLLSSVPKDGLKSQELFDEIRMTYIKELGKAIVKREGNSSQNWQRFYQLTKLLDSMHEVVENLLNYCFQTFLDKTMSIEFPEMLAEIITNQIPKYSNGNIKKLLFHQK
As to the kind of experiment: Co-transfection assay, GR antagonist activity, CV-1 cells (pRShGR). Type of test: cell-based. The settings on record: antagonist mode; for GR Antagonist CV-1 Cells Efficacy (%): Table 4, % maximal inhibition; for IC50: dexamethasone at its EC50, read-out: GR Antagonist CV-1 Cells Potency.

For test [2], the target named is T3, human progesterone receptor A form (PR-A) (Homo sapiens, UniProt P06401).
T3 sequence (P06401 1-769 isoform P06401-2): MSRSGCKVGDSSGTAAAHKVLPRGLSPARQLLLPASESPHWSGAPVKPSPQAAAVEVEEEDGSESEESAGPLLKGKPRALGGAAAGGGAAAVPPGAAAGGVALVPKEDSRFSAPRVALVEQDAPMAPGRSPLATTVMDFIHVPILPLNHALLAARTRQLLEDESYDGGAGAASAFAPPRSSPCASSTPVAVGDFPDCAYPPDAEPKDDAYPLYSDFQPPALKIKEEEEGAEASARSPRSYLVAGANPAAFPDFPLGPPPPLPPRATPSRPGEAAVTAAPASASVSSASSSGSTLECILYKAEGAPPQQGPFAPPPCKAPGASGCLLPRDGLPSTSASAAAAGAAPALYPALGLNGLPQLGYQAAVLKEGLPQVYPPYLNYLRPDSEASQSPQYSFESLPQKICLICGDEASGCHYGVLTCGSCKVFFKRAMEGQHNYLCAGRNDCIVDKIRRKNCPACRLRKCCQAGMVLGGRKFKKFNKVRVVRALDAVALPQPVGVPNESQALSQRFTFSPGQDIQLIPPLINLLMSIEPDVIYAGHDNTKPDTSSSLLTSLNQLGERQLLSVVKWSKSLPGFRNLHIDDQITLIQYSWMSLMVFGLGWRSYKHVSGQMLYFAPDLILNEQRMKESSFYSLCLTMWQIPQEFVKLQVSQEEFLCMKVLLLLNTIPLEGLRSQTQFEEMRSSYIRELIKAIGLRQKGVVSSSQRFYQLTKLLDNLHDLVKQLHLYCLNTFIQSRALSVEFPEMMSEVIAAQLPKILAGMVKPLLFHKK
As to the kind of experiment: PR binding assay, baculovirus extract, [3H] progesterone. To be noted: read-out: PR Binding Ki.

The target of test [3] is T4, human glucocorticoid receptor alpha (GRα) (Homo sapiens, UniProt P04150).
T4 construct: made in house; crude extract used
T4 sequence (P04150 1-777): T2 sequence (P04150 1-777)
As to the kind of experiment: GR binding assay, baculovirus extract, [3H] dexamethasone. The settings on record: competition with [3H] dexamethasone, 4° C., 16 hours; read-out: GR Binding K1.

As for `CC1=CC(C)(C)Nc2ccc3c(c21)C(c1cccc(C(F)(F)F)c1)Oc1ccccc1-3` (racemic) [Compound 195, (R/S) 1,2-Dihydro-2,2,4-trimethyl-5-[3-(trifluoromethyl)phenyl]-5H-chromeno[3,4-f]quinoline], the EC50 on human PR-B (agonist mode) is 13 nM. In addition, on human PR-B, the “PR Antagonist CV-1 Cells Efficacy (%)” value was “na (na = not active (i.e. efficacy or <20 and potency of >10,000))”; the IC50 was more than 10000 nM. In test [1], the “GR Antagonist CV-1 Cells Efficacy (%)” value is reported as 96% and the IC50 turned out to be 590 nM. For the same molecule, in test [2], the Ki came out at 3 nM. The Ki in test [3] worked out at 26 nM.
As to `CC1=CC(C)(C)Nc2ccc3c(c21)C(c1ccccc1)Oc1ccccc1-3` (racemic) [Compound 161, (R/S)-1,2-Dihydro-2,2,4-trimethyl-5-phenyl-5H-chromeno[3,4-f]quinoline], the EC50 on human PR-B (agonist mode) is 203 nM. Moreover, at human PR-B (agonist mode, percent maximal response relative to reference agonist progesterone), the “PR Agonist CV-1 Cells Efficacy (%)” value was found to be 47%. For the same molecule, on human PR-B, the “PR Antagonist CV-1 Cells Efficacy (%)” value is 75% and the IC50 came to 209 nM. In test [1], the “GR Antagonist CV-1 Cells Efficacy (%)” value was found to be 97% and the IC50 amounted to 600 nM. In addition, the Ki in test [2] was 3 nM. For the same molecule, the Ki in test [3] was found to be 137 nM.
